These results are taken from patent publication US20260308149A1, “NOVEL CARBOXAMIDE DERIVATIVES” (ANGELINI PHARMA S.P.A., priority 2023, published 2026).

T1 sequence (O43526 whole entry): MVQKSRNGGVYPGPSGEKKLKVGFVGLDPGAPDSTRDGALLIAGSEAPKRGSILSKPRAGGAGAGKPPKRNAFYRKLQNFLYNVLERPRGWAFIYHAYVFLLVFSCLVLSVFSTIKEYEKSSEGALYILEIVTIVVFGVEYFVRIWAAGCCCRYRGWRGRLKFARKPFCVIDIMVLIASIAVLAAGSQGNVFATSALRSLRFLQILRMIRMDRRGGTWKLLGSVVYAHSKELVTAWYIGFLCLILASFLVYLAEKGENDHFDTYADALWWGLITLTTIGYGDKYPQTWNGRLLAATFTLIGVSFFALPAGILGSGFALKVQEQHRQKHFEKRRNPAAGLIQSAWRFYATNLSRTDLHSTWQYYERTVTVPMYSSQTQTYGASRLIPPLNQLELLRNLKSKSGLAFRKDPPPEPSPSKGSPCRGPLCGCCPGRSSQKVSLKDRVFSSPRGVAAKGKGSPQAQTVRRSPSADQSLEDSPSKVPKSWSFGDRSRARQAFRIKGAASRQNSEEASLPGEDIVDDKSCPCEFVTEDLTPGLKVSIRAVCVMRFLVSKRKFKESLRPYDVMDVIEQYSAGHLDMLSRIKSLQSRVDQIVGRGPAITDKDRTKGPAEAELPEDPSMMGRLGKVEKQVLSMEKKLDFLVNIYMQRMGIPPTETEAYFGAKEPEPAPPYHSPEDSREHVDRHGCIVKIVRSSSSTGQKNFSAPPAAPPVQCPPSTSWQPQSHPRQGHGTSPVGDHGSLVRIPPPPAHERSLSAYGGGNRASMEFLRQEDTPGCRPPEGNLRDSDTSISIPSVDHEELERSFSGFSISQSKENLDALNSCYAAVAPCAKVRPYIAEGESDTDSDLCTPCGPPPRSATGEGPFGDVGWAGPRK

This test concerns the target T1, human Kv7.2 (Homo sapiens, UniProt O43526).
T1 construct: expressed in transfected cells
Kind of test: activation (potentiation) of Kv7.2 current, SyncroPatch 384 electrophysiology in CHO cells stably expressing human Kv7.2. The class given is cell-based. As to conditions: human Kv7.2 in CHO cells; in presence of 5.6 μM zinc pyrithione; % activation relative to 30 μM ML-213. The protocol: The potency of Kv7 potentiators was determined using the SyncroPatch 384 (Nanion) high throughput electrophysiology platform.
CHO cells stably expressing either human Kv7.2, Kv7.4 or Kv7.5/7.3 under a constitutive CMV promoter were used for these studies. Cells were maintained in F12 Hams+1 mM L-glutamine (Hyclone) supplemented with 10% FBS (Sigma), 0.3×NEAA (Non-essential Gamino-acids) and 400 ug/ml G418 at 37° C. in 5% CO2. Cells were cultured in T-225 flasks (Nunc) for 2-3 days to reach 85-95% confluence prior to electrophysiological recording.
Earle's balanced salt solution (in mM): 135 NaCl, 5.4 KCl, 5 Glucose, 2 CaCl2), 1 MgCl2, 5 HEPES, pH 7.4. Seal enhancer solution (in mM): 90 NaCl, 3 KCl, 35 CaCl2), 10 MgCl2, 10 HEPES, pH 7.4. Extracellular recording solution (in mM): 71 NaCl, 70 NMDG, 13 KCl. 5 Glucose, 2 CaCl2, 1 MgCl2, 10 HEPES, pH 7.4. Intracellular recording solution (in mM): 130 KF, 20 KCl, 4 EGTA, 10 HEPES, 2 EDTA, 0.01 Escin, pH 7.2.
Cells were harvested for electrophysiological recording upon reaching appropriate confluence. Cells were first washed in DPBS (Hyclone, Cat #SH30028.03) and then 2 ml of Accutase (MP Biomedicals #1000449) was added at 28° C. until ~90% of cells were suspended. F12 HAM's media+1 mM L-glutamine (Hyclone, SH30026.02) was then added to the flask to dilute the accutase. Cells were then triturated until a single cell suspension was achieved, a cell count was performed, and cells were centrifuged for 2 min. at 1,000 rpm. Media was then aspirated, and cells were resuspended in Earle's balanced salt solution to a concentration of 0.75×10^6 cells/ml and allowed to recover for 25 min at 10° C.
At the beginning of each assay, 20 μl of cell suspension was dispensed into each well of a multi-hole 384-well SyncroPatch chip by the onboard pipettor. Cell sealing was initiated, and seal enhancer solution was added to facilitate seal formation. Upon completion of sealing, cells were washed 3 times with extracellular recording solution and the assay voltage protocol was started. Human Kv7.2, Kv7.4 or Kv7.5/7.3 channels were evaluated using a voltage protocol in which cells were voltage-clamped at a holding potential of −60 mV. Potassium currents were continuously activated with a series of three voltage steps to −30 mV for 3 seconds, 40 mV for 1 second and −90 mV for 4 seconds with 12 seconds between successive voltage sweeps. Potassium currents were measured from the −90 mV repolarizing step. Baseline current was assessed for 3.5 minutes prior to the addition of 5.6 μM zinc pyrithione (1 μM for Kv7.4). Kv7.2, Kv7.4 or Kv7.5/7.3 current in the presence of zinc pyrithione was acquired over five minutes to allow channels to reach steady state activity prior to addition of test agents. Channel activity was monitored for three minutes preceding the addition of 30 μM ML-213 (3 minutes) to achieve maximum activation. 150 mM TEA with 10 μM XE-991 was applied for 2 minutes to measure the leak current during maximum inhibition of Kv7.2, Kv7.4 or Kv7.5/7.3 channels.
Data were collected on the SyncroPatch platform using PatchControl software (Nanion) and processed and analyzed using DataControl Software (Nanion). Percent activation was calculated from potassium current as follows: The average current for the 5 sweeps in the presence of zinc pyrithione immediately preceding test agent addition was taken as the ‘control’ data. Likewise, the average potassium current in the presence of test agents 5 sweeps immediately preceding addition of 30 μM ML-213 was determined for ‘drug’ data. The average potassium current 5 sweeps immediately prior to addition of 150 mM TEA+10 μM XE-991 was determined for ‘max activation’ data while average currents from 5 sweeps immediately following addition of TEA was determined for ‘max inhibition’ data. Percent activation for each of the 384-wells of a sealchip was calculated as ((‘drug’−‘max inhibition’)/(‘max activation’−‘max inhibition’))*100 with Pipeline Pilot (Accelrys). […]
Background: The patch-clamp technique gives a direct electrical read-out from membranes.
By EC50 is commonly meant the concentration giving half of the maximal effect. In the case of `CC(C)(C)O[C@H]1C[C@@H]1C(=O)NC[C@@]1(c2cccc(C#N)c2)CCO1` (mixture of isomers) [Example 114, (1SR,2SR)-2-tert-butoxy-N-[[(2S)-2-(3-cyanophenyl)oxetan-2-yl]methyl]cyclopropanecarboxamide], the EC50 was 7.52 µM.

As to `N#CCOC(CNC(=O)CC1CCCC1)c1cccc(Cl)c1` (stereo not drawn) [Example 73, N-[2-(3-chlorophenyl)-2-(cyanomethoxy)ethyl]-2-cyclopentyl-acetamide], the EC50 was found to be 2 µM. To `N#Cc1cccc([C@@]2(CNC(=O)C3CC4CCC3CC4)CCO2)c1` (stereo partly drawn) [Example 98, N-[[(2R)-2-(3-cyanophenyl)oxetan-2-yl]methyl]bicyclo[2.2.2]octane-2-carboxamide] belongs 6.65 µM.

Take `CC#C[C@H]1C[C@@H]1C(=O)NC[C@@]1(c2cccc(C#N)c2)CCO1` (mixture of isomers) [Example 134, (1SR,2SR)—N-[[(2S)-2-(3-cyanophenyl)oxetan-2-yl]methyl]-2-prop-1-ynyl-cyclopropanecarboxamide]: the 50% effective concentration (EC50) is 1.7 µM. With `O=C(CC1(C(F)(F)F)CC1)NCC1(c2cccc(OC(F)F)n2)CCO1` (stereo not drawn) [Example 132, N-[[2-[6-(difluoromethoxy)-2-pyridyl]oxetan-2-yl]methyl]-2-[1-(trifluoromethyl)cyclopropyl]acetamide], the EC50 came to 8.24 µM. As to `COC(C)(CNC(=O)NCC1CC1)c1cccc(Cl)c1` (stereo not drawn) [Example 23, 1-[2-(3-chlorophenyl)-2-methoxy-propyl]-3-(cyclopropylmethyl)urea], the half-maximal effective concentration (EC50) was 8.2 µM. To `COc1cccc(NC(=O)NCC(C)(OC)c2cccc(Cl)c2)c1` (stereo not drawn) [Example 5, 1-[2-(3-chlorophenyl)-2-methoxy-propyl]-3-(3-methoxyphenyl)urea] belongs 1.04 µM; to `O=C(NC(CO)C1(c2cccc(Cl)c2)CC1)[C@H]1C[C@@H]1c1ccccc1` (stereo partly drawn) [Example 86, (1S,2S)—N-[1-[1-(3-chlorophenyl)cyclopropyl]-2-hydroxy-ethyl]-2-phenyl-cyclopropanecarboxamide], 5.62 µM. `COC(C)(CNC(=O)[C@H]1C[C@@H]1c1ccccc1)c1ccnc(Cl)c1` (mixture of isomers) [Example 51, (1S,2S)-N-[(2RS)-2-(2-chloro-4-pyridyl)-2-methoxy-propyl]-2-phenyl-cyclopropanecarboxamide]: the half-maximal effective concentration (EC50) was 0.94 µM.

For the compound `CO[C@@](C)(CNC(=O)CCC(O)C(C)(C)C)c1cccc(Cl)c1` (stereo partly drawn) [Example 69, N-[(2R)-2-(3-chlorophenyl)-2-methoxy-propyl]-4-hydroxy-5,5-dimethyl-hexanamide], the concentration for a half-maximal effect (EC50) was 6.29 µM.

With `N#Cc1cccc([C@]2(CNC(=O)C3CCCC34CCC4)CCO2)c1` (stereo partly drawn) [Example 104, N-[[(2S)-2-(3-cyanophenyl)oxetan-2-yl]methyl]spiro[3.4]octane-8-carboxamide], the concentration for a half-maximal effect (EC50) came out at 0.51 µM. Regarding `COC(C)(CNC(=O)NCC1CCCC1)c1cccc(Cl)c1` (stereo not drawn) [Example 21, 1-[2-(3-chlorophenyl)-2-methoxy-propyl]-3-(cyclopentylmethyl)urea], the EC50 is 0.55 µM.

On to `O=C(NCC(CO)c1cccc(Cl)c1)[C@H]1C[C@@H]1c1ccccc1` (stereo partly drawn) [Example 74, (1S,2S)—N-[2-(3-chlorophenyl)-3-hydroxy-propyl]-2-phenyl-cyclopropanecarboxamide], for which the EC50 was determined as 3.1 µM. Regarding `N#Cc1cccc([C@]2(CNC(=O)[C@H]3C[C@@H]3C3CCCC3)CCO2)c1` [Example 112, (1S,2R)—N-[[(2S)-2-(3-cyanophenyl)oxetan-2-yl]methyl]-2-cyclopentyl-cyclopropanecarboxamide], the EC50 was 0.09 µM. In the case of `N#Cc1cccc([C@]2(CNC(=O)CC3CCCCC3)CCO2)c1` [Example 93, N-[[(2S)-2-(3-cyanophenyl)oxetan-2-yl]methyl]-2-cyclohexyl-acetamide], the EC50 worked out at 5.43 µM. For the compound `O=C(NCC1(c2cccc(Cl)c2)CCO1)C1CC2(CCC2)C1` (stereo not drawn) [Example 64, N-[[2-(3-chlorophenyl)oxetan-2-yl]methyl]spiro[3.3]heptane-2-carboxamide], the EC50 amounted to 2.75 µM. To `O=C(NCC1CCCC1)NCC1(c2cccc(Cl)c2)COC1` [Example 72, 1-[[3-(3-chlorophenyl)oxetan-3-yl]methyl]-3-(cyclopentylmethyl)urea] belongs 0.87 µM.

For the compound `CO[C@@](C)(CNC(=O)C1CC12CCCCC2)c1cccc(Cl)c1` (stereo partly drawn) [Example 82, N-[(2R)-2-(3-chlorophenyl)-2-methoxy-propyl]spiro[2.5]octane-2-carboxamide], the EC50 came out at 0.29 µM. To `N#Cc1cccc([C@]2(CNC(=O)[C@H]3C[C@@H]3C3CC(F)(F)C3)CCO2)c1` (mixture of isomers) [Example 127, (1SR,2RS)—N-[[(2S)-2-(3-cyanophenyl)oxetan-2-yl]methyl]-2-(3,3-difluorocyclobutyl)cyclopropanecarboxamide] belongs 1.04 µM.

As to `O=C(NCC1CCCC1)NCC1(c2cccc(Cl)c2)CCO1` (stereo not drawn) [Example 59, 1-[[2-(3-chlorophenyl)oxetan-2-yl]methyl]-3-(cyclopentylmethyl)urea], the EC50 was 0.32 µM. To `N#Cc1cccc([C@]2(CNC(=O)CC3CC4(CCC4)C3)CCO2)c1` [Example 116, N-[[(2S)-2-(3-cyanophenyl)oxetan-2-yl]methyl]-2-spiro[3.3]heptan-2-yl-acetamide] belongs 0.61 µM; to `COC(C)(CNC(=O)NC1CCCC1)c1cccc(Cl)c1` (stereo not drawn) [Example 3, 1-[2-(3-chlorophenyl)-2-methoxy-propyl]-3-cyclopentyl-urea], 2.34 µM. To `O=C(NCc1cccc(Cl)c1)NCC1(c2cccc(Cl)c2)CCO1` (stereo not drawn) [Example 62, 1-[(3-chlorophenyl)methyl]-3-[[2-(3-chlorophenyl)oxetan-2-yl]methyl]urea] belongs 0.42 µM. To `O=C(NCC(CCO)c1cccc(Cl)c1)[C@H]1C[C@@H]1c1ccccc1` (stereo partly drawn) [Example 92, (1S,2S)—N-[2-(3-chlorophenyl)-4-hydroxy-butyl]-2-phenyl-cyclopropanecarboxamide] belongs 1.81 µM; to `O=C(NCC(OC1CC1)c1cccc(Cl)c1)NC1CCCC1` (stereo not drawn) [Example 18, 1-[2-(3-chlorophenyl)-2-(cyclopropoxy)ethyl]-3-cyclopentyl-urea], 4.58 µM; to `N#Cc1cc(C2(CNC(=O)[C@H]3C[C@@H]3c3ccccc3)CCO2)ccc1F` (stereo partly drawn) [Example 125, (1S,2S)—N-[[2-(3-cyano-4-fluoro-phenyl)oxetan-2-yl]methyl]-2-phenyl-cyclopropanecarboxamide], 2.19 µM. Consider `CC#C[C@@H]1C[C@@H]1C(=O)NC[C@@]1(c2cccc(C#N)c2)CCO1` (mixture of isomers) [Example 137, (1SR,2RS)—N-[[(2S)-2-(3-cyanophenyl)oxetan-2-yl]methyl]-2-prop-1-ynyl-cyclopropanecarboxamide], for which the EC50 amounted to 1.11 µM.

Turning to `O=C(CC1CCC(F)(F)CC1)NCC1(c2cccc(Cl)c2)CCO1` (stereo not drawn) [Example 65, N-[[2-(3-chlorophenyl)oxetan-2-yl]methyl]-2-(4,4-difluorocyclohexyl)acetamide], the EC50 was found to be 1.92 µM. Consider `COC(C)(CNC(=O)NCC1CCCC1)c1cccc(Cl)c1` (single isomer, unassigned) [Example 71], for which the EC50 is 0.53 µM. To `COC(CNC(=O)Cc1cccc2ccccc12)c1ccccc1Cl` (stereo not drawn) [Example 36, N-[2-(2-chlorophenyl)-2-methoxy-ethyl]-2-(1-naphthyl)acetamide] belongs 1.58 µM.
